Literature values, collected in patent US5478810A, “Peptide amides, processes for the preparation thereof and agents containing these as fibrin/thrombin clotting inhibitors” (Behringwerke Aktiengesellschaft, priority 1990, dated 1995).
No end group written: not given here. *: point of attachment. 4‑hydroxypiperidide = C-terminal 4-hydroxypiperidide, OC1CCN(*)CC1; 3‑methylpiperidide = C-terminal 3-methylpiperidide

System: plasma clotting
Conditions: relative to GPRP = 1

First: GPRP 3-methylpiperidide (GPRP-{3‑methylpiperidide}) [known peptide derivative presented at the XIth American Symposium on Peptides]
Second: GPRP 4-hydroxypiperidide (GPRP-{4‑hydroxypiperidide}) [known peptide derivative presented at the XIth American Symposium on Peptides]
The “relative activity (amount of plasma which is inhibited with a defined amount of inhibitor)” value of the first is higher: 1.29 for the first, 1.2 for the second.

In the case of GPRP-NH2, the “relative activity (amount of plasma which is inhibited with a defined amount of inhibitor)” value is given as 3.52.
